Laboratory results from ChEMBL document CHEMBL1201862, “PubChem BioAssay data set” (2004).
Active and inactive are the calls of the source.

What was measured:
HEK293 [1] = assay: HEK cell cytotoxicity by LDH release, dose response, cytotoxicity control for IDE activator project, fluorescence, HEK cells (AID 588440); format: functional, cell-based; conditions: Homo sapiens;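 also: cytotoxicity by LDH release measuring loss of membrane integrity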
Insulin-degrading enzyme [2] = biological target: T1, Insulin-degrading enzyme (Homo sapiens, UniProt P14735); assay: activators of endogenous IDE in HEK cells, dose response, cell-based, fluorescence polarization (AID 588439); format: functional
T1 sequence (P14735 whole entry): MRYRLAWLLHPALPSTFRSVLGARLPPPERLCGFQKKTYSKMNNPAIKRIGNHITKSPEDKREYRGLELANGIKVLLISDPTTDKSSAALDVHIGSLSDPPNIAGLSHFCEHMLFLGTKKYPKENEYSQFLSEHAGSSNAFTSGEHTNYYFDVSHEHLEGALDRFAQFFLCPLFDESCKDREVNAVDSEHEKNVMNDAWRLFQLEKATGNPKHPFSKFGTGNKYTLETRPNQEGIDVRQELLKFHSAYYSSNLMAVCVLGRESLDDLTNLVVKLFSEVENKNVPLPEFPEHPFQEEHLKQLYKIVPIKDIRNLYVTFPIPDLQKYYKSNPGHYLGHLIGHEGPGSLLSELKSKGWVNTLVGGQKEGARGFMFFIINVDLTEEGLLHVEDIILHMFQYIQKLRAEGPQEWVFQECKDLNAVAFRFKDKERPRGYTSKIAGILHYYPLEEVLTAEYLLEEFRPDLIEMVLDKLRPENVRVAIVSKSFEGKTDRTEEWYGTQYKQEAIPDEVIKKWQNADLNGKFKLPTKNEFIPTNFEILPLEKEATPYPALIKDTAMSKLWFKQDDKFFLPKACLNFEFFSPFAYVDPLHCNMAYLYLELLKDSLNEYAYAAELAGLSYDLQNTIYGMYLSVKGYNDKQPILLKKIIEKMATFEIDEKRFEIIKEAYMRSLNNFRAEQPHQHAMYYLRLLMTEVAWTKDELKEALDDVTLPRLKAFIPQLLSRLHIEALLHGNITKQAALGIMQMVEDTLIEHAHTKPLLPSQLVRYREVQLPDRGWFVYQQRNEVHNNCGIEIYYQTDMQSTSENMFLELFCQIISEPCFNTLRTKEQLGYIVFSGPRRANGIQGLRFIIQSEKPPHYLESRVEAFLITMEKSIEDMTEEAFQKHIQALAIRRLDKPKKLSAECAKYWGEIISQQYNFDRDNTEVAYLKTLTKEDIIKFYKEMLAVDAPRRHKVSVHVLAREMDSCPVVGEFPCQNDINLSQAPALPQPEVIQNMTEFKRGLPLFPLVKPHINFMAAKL

Insulin-degrading enzyme [3] = biological target: T1, Insulin-degrading enzyme; assay: activators of recombinant IDE enzyme, dose response, counter-screen for IDE activator project, biochemical, fluorescence polarization (AID 588681)
HEK293 [4] = assay: optical interference in Abeta FP readout, dose response, artefact control for IDE activator project, biochemical, fluorescence polarization (AID 588442); format: functional, cell-based; conditions: Homo sapiens
[5] = nonselective inhibitors of cellular cAMP signaling, dose response, counter-screen for MC4R biased antagonist project, cell-based, TR-FRET cAMP detection (AID 602305); format: functional;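 also: U2OS cells stimulated with forskolin near its EC80 as the cAMP inducer; potency is for inhibition of forskolin-stimulated cAMP signaling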
Melanocortin receptor 4 [6] = biological target: T2, Melanocortin receptor 4 (Homo sapiens, UniProt P32245); assay: MC4R antagonist potency on cAMP, dose response, cell-based, TR-FRET, biased antagonists (AID 602298); format: functional;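 also: antagonist potency against agonist-stimulated cAMP production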
[7] = biological target: T3, Histone-lysine N-methyltransferase NSD2 (Homo sapiens, UniProt O96028); format: biochemical
T3 sequence (O96028 whole entry): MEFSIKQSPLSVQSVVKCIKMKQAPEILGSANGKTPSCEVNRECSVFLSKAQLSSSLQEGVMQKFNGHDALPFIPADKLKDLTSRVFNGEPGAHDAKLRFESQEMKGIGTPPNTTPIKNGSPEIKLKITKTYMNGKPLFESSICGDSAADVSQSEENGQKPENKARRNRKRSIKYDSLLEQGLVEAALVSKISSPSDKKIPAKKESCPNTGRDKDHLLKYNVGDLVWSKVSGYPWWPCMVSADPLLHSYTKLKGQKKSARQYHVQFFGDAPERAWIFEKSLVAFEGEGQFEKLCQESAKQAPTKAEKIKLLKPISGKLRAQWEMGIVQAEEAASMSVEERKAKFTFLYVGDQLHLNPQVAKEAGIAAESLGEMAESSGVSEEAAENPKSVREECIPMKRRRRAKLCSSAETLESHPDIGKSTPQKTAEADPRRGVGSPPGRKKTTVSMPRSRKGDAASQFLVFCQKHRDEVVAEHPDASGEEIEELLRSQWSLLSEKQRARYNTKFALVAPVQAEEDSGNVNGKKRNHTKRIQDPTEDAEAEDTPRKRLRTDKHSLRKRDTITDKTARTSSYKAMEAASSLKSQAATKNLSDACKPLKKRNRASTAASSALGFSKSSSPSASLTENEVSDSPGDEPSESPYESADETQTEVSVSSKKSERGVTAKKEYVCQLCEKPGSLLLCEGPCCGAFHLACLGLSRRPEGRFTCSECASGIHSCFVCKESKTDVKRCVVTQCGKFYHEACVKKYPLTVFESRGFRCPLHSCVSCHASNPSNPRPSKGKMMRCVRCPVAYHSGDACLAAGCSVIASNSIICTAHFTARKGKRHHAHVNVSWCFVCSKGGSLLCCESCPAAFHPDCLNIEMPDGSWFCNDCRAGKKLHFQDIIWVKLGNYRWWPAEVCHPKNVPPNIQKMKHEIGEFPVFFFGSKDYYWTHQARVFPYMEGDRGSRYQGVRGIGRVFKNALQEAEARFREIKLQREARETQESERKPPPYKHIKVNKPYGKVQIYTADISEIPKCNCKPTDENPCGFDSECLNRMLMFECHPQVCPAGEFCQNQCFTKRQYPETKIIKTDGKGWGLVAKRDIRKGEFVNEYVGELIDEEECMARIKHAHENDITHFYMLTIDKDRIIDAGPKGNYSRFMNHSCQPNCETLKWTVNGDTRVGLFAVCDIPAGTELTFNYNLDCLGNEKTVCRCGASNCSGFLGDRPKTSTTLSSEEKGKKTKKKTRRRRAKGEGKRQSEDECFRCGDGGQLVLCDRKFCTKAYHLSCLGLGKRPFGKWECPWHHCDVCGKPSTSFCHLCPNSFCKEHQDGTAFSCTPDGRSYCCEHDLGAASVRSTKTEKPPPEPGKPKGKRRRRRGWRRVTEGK

[8] = biological target: Ras and Rab interactor 1/Tyrosine-protein kinase ABL1 (Homo sapiens, UniProt P00519+Q13671); format: functional;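 also: biochemical TR-FRET dose-response test measuring inhibition of binding between Rin1 and Abl proteins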
Orexin receptor type 2 [9] = biological target: T4, Orexin receptor type 2 (Homo sapiens, UniProt O43614); assay: Counterscreen assay for antagonists of the orexin 1 receptor (OX1R; HCRTR1): Fluorescence-based cell-based dose response assay for antagonists of the orexin 2 receptor (OX2R; HCRTR2), run by assay provider.; format: functional
T4 sequence (O43614 whole entry): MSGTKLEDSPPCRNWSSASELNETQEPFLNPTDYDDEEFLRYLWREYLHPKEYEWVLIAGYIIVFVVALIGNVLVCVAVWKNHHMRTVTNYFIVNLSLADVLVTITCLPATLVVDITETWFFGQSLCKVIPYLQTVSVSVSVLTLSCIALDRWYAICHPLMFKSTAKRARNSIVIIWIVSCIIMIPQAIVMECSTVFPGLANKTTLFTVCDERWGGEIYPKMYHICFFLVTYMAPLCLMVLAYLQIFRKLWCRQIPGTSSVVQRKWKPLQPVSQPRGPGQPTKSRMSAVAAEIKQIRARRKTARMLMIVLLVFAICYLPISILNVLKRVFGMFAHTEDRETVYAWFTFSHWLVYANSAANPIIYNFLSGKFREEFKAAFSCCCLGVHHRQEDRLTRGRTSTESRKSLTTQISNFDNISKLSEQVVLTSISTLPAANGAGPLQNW

[10] = (§1) Counterscreen for antagonists of the orexin 1 receptor (OX1R; HCRTR1): Fluorescence-based cell-based high throughput dose response assay to identify antagonists of the parental CHO cell line. [Related pubchem assays (depositor defined):AID434989, AID435008, AID463079, AID485270, AID492963, AID492964, AID492965, AID493232, AID504699, AID504701]; format: functional
Orexin receptor type 2 [11] = biological target: T4, Orexin receptor type 2; assay: Counterscreen assay for antagonists of the orexin 1 receptor (OX1R; HCRTR1): Homogeneous Time Resolved Fluorescence (HTRF)-based cell-based dose response assay for antagonists of the orexin 2 receptor (OX2R; HCRTR2), run by assay provider.; format: functional
[12] = biological target: T5, Orexin/Hypocretin receptor type 1 (Homo sapiens, UniProt O43613); assay: Homogeneous Time Resolved Fluorescence (HTRF)-based cell-based high throughput dose response assay for antagonists of the orexin 1 receptor (OX1R; HCRTR1). [Related pubchem assays (depositor defined):AID434989, AID435008, AID463079, AID485270, AID492963, AID492964, AID492965, AID493232, AID504717, AID504718]; format: functional
T5 sequence (O43613 whole entry): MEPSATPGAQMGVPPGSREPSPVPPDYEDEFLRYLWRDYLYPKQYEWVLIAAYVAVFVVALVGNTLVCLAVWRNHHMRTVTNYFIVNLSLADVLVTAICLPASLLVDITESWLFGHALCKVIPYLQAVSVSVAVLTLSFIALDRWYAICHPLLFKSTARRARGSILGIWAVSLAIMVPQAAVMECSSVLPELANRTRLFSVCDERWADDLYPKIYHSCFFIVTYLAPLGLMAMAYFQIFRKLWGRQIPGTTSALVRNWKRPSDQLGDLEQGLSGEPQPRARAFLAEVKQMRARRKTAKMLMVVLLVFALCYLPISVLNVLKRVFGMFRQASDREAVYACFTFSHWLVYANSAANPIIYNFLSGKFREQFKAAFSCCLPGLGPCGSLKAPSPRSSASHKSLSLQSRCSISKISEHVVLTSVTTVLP

[13] = biological target: T5, Orexin/Hypocretin receptor type 1; assay: Fluorescence-based cell-based high throughput dose response assay for antagonists of the orexin 1 receptor (OX1R; HCRTR1). [Related pubchem assays (depositor defined):AID434989, AID435008, AID463079, AID485270, AID492963, AID492964, AID492965, AID493232, AID504717, AID504718]; format: functional
CHO-K1 = assay: as §1, with “Homogeneous time resolved fluorescence (HTRF)-based” for “Fluorescence-based”, “cell-based” for “cell-based high throughput”, “CHO-K1” for “CHO”; format: functional; conditions: Cricetulus griseus;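 also: potency for inhibition of ATP-stimulated IP1 production as antagonists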
Melanocortin receptor 4 [14] = biological target: T2, Melanocortin receptor 4; format: functional, cell-based

T2 sequence (P32245 whole entry): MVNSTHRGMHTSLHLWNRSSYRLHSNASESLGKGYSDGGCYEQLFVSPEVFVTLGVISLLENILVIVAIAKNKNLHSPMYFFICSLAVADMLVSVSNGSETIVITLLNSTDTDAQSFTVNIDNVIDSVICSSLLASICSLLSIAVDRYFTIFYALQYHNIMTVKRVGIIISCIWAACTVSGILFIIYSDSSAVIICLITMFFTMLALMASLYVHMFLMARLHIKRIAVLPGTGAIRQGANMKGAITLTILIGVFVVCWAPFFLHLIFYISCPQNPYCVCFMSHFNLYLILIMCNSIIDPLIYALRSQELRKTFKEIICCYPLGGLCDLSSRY
Chain of Ras and Rab interactor 1/Tyrosine-protein kinase ABL1 (P00519 whole entry): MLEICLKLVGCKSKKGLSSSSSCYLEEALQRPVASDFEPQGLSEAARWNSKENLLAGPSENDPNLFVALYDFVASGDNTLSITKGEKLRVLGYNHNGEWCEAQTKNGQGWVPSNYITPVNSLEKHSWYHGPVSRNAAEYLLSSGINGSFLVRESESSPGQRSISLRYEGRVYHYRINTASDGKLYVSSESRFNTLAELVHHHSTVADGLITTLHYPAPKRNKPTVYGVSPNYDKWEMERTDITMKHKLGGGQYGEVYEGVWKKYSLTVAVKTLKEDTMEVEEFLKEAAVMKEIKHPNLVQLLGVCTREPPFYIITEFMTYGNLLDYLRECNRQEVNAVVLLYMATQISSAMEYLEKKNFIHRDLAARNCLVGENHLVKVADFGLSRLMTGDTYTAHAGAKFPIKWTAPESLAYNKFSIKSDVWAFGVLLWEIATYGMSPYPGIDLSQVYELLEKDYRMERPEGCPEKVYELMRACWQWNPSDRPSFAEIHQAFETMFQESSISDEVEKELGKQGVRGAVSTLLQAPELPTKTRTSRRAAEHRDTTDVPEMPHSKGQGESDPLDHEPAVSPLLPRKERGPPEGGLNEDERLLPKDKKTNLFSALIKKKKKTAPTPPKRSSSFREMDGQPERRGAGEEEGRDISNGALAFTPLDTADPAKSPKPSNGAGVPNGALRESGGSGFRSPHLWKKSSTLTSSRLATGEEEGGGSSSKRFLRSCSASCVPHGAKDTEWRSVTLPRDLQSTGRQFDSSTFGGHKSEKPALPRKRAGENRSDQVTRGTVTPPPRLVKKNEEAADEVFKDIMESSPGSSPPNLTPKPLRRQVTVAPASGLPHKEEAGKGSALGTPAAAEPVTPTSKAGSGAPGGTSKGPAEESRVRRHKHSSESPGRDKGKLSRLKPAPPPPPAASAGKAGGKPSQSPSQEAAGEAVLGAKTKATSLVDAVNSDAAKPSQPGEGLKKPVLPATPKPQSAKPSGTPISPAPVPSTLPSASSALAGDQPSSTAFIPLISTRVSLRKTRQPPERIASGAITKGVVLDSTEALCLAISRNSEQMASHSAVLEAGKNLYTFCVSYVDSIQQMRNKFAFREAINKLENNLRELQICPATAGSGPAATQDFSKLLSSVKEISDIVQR
Chain of Ras and Rab interactor 1/Tyrosine-protein kinase ABL1 (Q13671 whole entry): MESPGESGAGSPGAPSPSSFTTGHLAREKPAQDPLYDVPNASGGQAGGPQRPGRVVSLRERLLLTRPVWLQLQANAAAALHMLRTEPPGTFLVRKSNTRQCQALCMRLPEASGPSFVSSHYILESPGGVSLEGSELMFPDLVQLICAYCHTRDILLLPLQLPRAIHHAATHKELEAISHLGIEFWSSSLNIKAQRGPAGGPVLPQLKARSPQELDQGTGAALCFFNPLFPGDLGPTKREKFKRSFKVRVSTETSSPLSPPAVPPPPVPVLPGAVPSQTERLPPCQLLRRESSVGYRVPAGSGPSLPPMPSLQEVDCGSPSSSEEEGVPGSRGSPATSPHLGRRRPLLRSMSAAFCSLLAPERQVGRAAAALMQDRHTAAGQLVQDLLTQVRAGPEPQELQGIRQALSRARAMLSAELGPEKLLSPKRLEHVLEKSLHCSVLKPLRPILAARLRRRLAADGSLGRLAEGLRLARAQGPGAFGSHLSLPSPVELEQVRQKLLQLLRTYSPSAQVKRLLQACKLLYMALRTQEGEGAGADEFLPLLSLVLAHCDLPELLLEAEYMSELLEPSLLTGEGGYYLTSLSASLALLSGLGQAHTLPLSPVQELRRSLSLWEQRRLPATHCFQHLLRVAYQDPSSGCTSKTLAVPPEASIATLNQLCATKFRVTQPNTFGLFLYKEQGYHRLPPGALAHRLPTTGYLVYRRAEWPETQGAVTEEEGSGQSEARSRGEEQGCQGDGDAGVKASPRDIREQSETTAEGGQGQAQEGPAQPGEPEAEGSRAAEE

In the case of `CC(=O)N1CCC(=O)Nc2ccc([N+](=O)[O-])cc21`, the IC50 (HEK293 [1]) is reported as > 89.3 µM (inactive), the EC50 (Insulin-degrading enzyme [2]) is reported as > 54.7 µM (inactive) and the EC50 (Insulin-degrading enzyme [3]) is reported as > 54.7 µM (inactive). The EC50 (HEK293 [4]) was > 54.7 µM (inactive).
With `O=C1OCCC1Sc1nc2cc(Cl)ccc2n1Cc1ccccc1` (stereo not drawn) the IC50 [5] was > 64.6 µM (inactive) and the IC50 (Melanocortin receptor 4 [6]) was > 64.6 µM (inactive).
In the case of `O=[N+]([O-])c1cccc(Cl)c1NCCNc1ncc(C(F)(F)F)cc1Cl`, the IC50 (HEK293 [1]) is reported as > 89.2 µM (inactive), the EC50 (Insulin-degrading enzyme [2]) is reported as > 54.7 µM (inactive) and the EC50 (Insulin-degrading enzyme [3]) is reported as > 54.7 µM (inactive). For the same compound, the EC50 (HEK293 [4]) was > 54.7 µM (inactive).
With `COc1ccccc1NS(=O)(=O)c1cccc(NC(=O)C2CC2)c1` the IC50 (HEK293 [1]) was > 89.2 µM (inactive), the EC50 (Insulin-degrading enzyme [2]) was > 54.7 µM (inactive) and the EC50 (Insulin-degrading enzyme [3]) was > 54.7 µM (inactive). For the same compound, the EC50 (HEK293 [4]) was > 55.9 µM (inactive).
In the case of `CCOC(=O)CCCCC(=O)c1[nH]c(O)nc1CSc1nc(C)cc(O)n1`, the AC50 [7] is reported as 8.18 µM (active) and the IC50 [8] is reported as 0.192 µM (active).
For `COc1cccc(OP(=O)(Nc2ccccc2)Oc2cccc(OC)c2)c1`, the IC50 (Orexin receptor type 2 [9]) was > 88.8 µM (inactive), the IC50 [10] was > 49.7 µM (inactive) and the IC50 (Orexin receptor type 2 [11]) was > 50 µM (inactive). For the same compound, the IC50 [12] was 9.26 µM (active), the IC50 [13] was 14.5 µM (inactive) and the IC50 (CHO-K1) was > 66.2 µM (inactive).
With `Cc1ccccc1-c1nc(-c2ccc(NC(=O)c3ccc4c(c3)OCO4)cc2)no1` the EC50 (Melanocortin receptor 4 [14]) was > 89.1 µM (inactive).
